Test results taken from patent US20220381784A1, “SYSTEMS COMPRISING SUBSTRATES AND METHODS OF USING THE SAME FOR DETECTION OF PANCREATIC CANCERS” (THE REGENTS OF THE UNIVERSITY OF CALIFORNIA, priority 2019, published 2022).
Values belong to the molecule of their own block, whether it stands above or below them. Square brackets hold non-standard residues; d marks the D form. Peptide text beside a SMILES is read from it. * marks the point of attachment. Sta = CC(C)C[C@H](N)[C@@H](O)CC(=O)O; Isovaleryl = CC(C)CC(=O)*; CH2Cl = ClC*

Key:
[1] = tested on: tri-amino peptidase activity in mucinous cyst fluid; assay: MSP-MS assay of mucinous cyst fluid with protease inhibitors; type: biochemical, human; conditions: 2 μmol/L pepstatin; for effect on tri-amino peptidase activity (cleavage after third amino acid): pH 3.5, 10 μmol/L AAF-CMK
Procedure: The MSP-MS assay was performed as described previously (Ivry et al., 2017; O'Donoghue et al., 2012). Cyst fluid protein concentration was first determined through the BCA assay (Thermo Fisher, 23225). Cyst fluid samples were then diluted to 100 μg/mL in pH 3.5 acetate buffer or pH 7.5 phosphate buffer. The 228 tetradecapeptide was split into two pools of 114 peptides each and diluted to 1 μmol/L in either acetate or phosphate buffer. Equal volumes of diluted cyst fluid and peptide pools were combined and incubated at room temperature. After 15 and 60 minutes, 30 μL aliquots were removed and protease activity was quenched with 8 mol/L guanidinium hydrochloride. Aliquots were then desalted using C18 tips (Rainin). The following inhibitors were included in specified MSP-MS assays: 1 mmol/L AEBSF (Sigma, A8456), 2 mmol/L E64 (Sigma, E3132), 2 μmol/L pepstatin (Sigma, P5318), 2 mmol/L 1,10-phenanthroline (Sigma, 131337), and 10 μmol/L AAF-CMK (Enzo, BML-PI123).
Mass spectrometry analysis was performed with an LTQ Orbitrap XL Mass Spectrometer (Thermo Fisher) coupled to an Ultra Performance Liquid Chromatography (UPLC) System (Waters). Peptides were separated over a C18 column (Thermo Fisher, ES800) with a 65-minute linear gradient from 2%-30% acetonitrile. MS spectra were acquired over an m/z range of 325-1,500 and MS/MS spectra were obtained for the six most intense precursor ions by collision-induced dissociation (CID). Peak lists were generated using MSConvert and searched in Protein Prospector v. 5.10.0 against a database containing the sequences from the 228 tetradecapeptide library. Searches used a mass tolerance of 20 ppm for precursors and 0.8 Da for fragments. The following variable modifications were allowed: N-terminal pyroglutamate conversion from glutamine or glutamate and oxidation of tryptophan, proline, and tyrosine. Search outputs were then processed using the MSP-xtractor software (http://www.craiklab.ucsfedu/extractor.html). […] Spectral counts were used for relative quantification of MSP-MS results.

[2] = target: most rapidly cleaved internally quenched fluorescent TPP1 substrate (P3 to P4' sequence from the MSP-MS library, lysine-fluorophore in P1)

number of detected peptide cleavages at other positions enriched in mucinous cysts (B6, B8, B9, B10) ([1]; acidic pH): decrease
effect on tri-amino peptidase activity (cleavage after third amino acid) [1]: not inhibited
Molecule: CC(C)CC(=O)N[C@H](C(=O)N[C@H](C(=O)N[C@@H](CC(C)C)[C@@H](O)CC(=O)N[C@@H](C)C(=O)N[C@@H](CC(C)C)[C@@H](O)CC(=O)O)C(C)C)C(C)C [pepstatin] (Isovaleryl-VV[Sta]A[Sta]-OH)

Molecule: C[C@H](N)C(=O)N[C@@H](C)C(=O)N[C@@H](Cc1ccccc1)C(=O)CCl [tripeptide chloromethylketone inhibitor, Ala-Ala-Phe-chloromethylketone] (H-Ala-Ala-Phe-CH2Cl)
effect on tri-amino peptidase activity (cleavage after third amino acid) [1]: almost completely ablated

B1: recombinant tripeptidyl peptidase 1 (TPP1) (protein)
chain: LHLGVTPSVIRKRYNLTSQDVGSGTSNNSQACAQFLEQYFHDSDLAQFMRLFGGNFAHQASVARVVGQQGRGRAGIEASLDVQYLMSAGANISTWVYSSPGRHEGQEPFLQWLMLLSNESALPHVHTVSYGDDEDSLSSAYIQRVNTELMKAAARGLTLLFASGDSGAGCWSVSGRHQFRPTFPASSPYVTTVGGTSFQEPFLITNEIVDYISGGGFSNVFPRPSYQEEAVTKFLSSSPHLPPSSYFNASGRAYPDVAALSDGYWVVSNRVPIPWVSGTSASTPVFGGILSLINEHRILSGRPPLGFLNPRLYQQHGAGLFDVTRGCHESCLDEEVEGQGFCSGPGWDPVTGWGTPNFPALLKTLLNP
kcat/Km (cleavage of internally quenched fluorescent substrate, fluorescence assay, pH 4.5) [2]: kcat/Km of 2.5 µmol^-1s^-1
